{"source": "ChEMBL document CHEMBL1129905", "about": "“Benzothiadiazine dioxide acyclonucleosides as lead compounds for the development of new agents against human cytomegalovirus and varicella-zoster virus infections” (Bioorg Med Chem Lett, 1997)", "key": {"[1]": {"system": "HeLa", "assay": "(§1) Cytotoxic activity was measured in human […] cells (HeLa)", "type": "functional"}, "[2]": {"system": "HeLa", "assay": "as §1", "type": "functional", "remark": "listed apart in the source"}, "[3]": {"system": "HEL", "assay": "Antiviral activity was measured against cytomegalovirus (CMV) Davis strain in human embryonic lung (HEL) cells", "type": "functional, cell-based"}, "[4]": {"system": "MT4", "assay": "The potential anti-HIV activity was evaluated against HIV-1 IIIb strain in MT-4 cells", "type": "functional, cell-based", "conditions": "Homo sapiens"}, "[5]": {"system": "HEL", "assay": "Antiviral activity was measured against Varicella-Zoster virus (VZV) 07/1 strain in human embryonic lung (HEL) cells", "type": "functional, cell-based"}, "[6]": {"system": "MT4", "assay": "The potential anti-HIV activity was evaluated against HIV-2 ROD strain in MT-4 cells", "type": "functional, cell-based", "conditions": "Homo sapiens"}, "[7]": {"system": "HEL", "assay": "Antiviral activity was measured against Varicella-Zoster virus (VZV) YS/R strain in human embryonic lung (HEL) cells", "type": "functional, cell-based"}, "[8]": {"assay": "Cytotoxic activity was measured in human embryonic lung cells(HeLa)", "type": "functional"}, "[9]": {"system": "HEL", "assay": "Antiviral activity was measured against cytomegalovirus (CMV) AD-169 strain in human embryonic lung (HEL) cells", "type": "functional, cell-based"}, "[10]": {"system": "Human immunodeficiency virus 1", "assay": "Tested for its ability to inhibit replication of HIV-1 in MT-4 cells, activity expressed as IC50.", "type": "functional", "conditions": "Human immunodeficiency virus 1, MT4"}}, "data": [{"smiles": "Nc1nc2c(ncn2COCCO)c(=O)[nH]1", "note": "[ACYCLOVIR]", "values": [{"measurement": "CC50", "setting": "[1]", "value": 200, "unit": "µg/mL"}]}, {"smiles": "O=C1c2ccccc2N(COCc2ccccc2)S(=O)(=O)N1Cc1ccccc1", "values": [{"measurement": "CC50", "setting": "[2]", "value": "> 50", "unit": "µg/mL"}, {"measurement": "IC50", "setting": "[3]", "value": 12, "unit": "µg/mL"}, {"measurement": "IC50", "setting": "[4]", "value": "> 8", "unit": "µg/mL"}, {"measurement": "IC50", "setting": "[5]", "value": 11, "unit": "µg/mL"}, {"measurement": "IC50", "setting": "[6]", "value": "> 8", "unit": "µg/mL"}, {"measurement": "IC50", "setting": "[7]", "value": 13, "unit": "µg/mL"}, {"measurement": "CC50", "setting": "[8]", "value": 25, "unit": "µg/mL"}, {"measurement": "IC50", "setting": "[9]", "value": 11, "unit": "µg/mL"}, {"measurement": "CC50", "setting": "[1]", "value": "> 50", "unit": "µg/mL"}]}, {"smiles": "C#CCOCN1c2ccccc2C(=O)N(Cc2ccccc2)S1(=O)=O", "values": [{"measurement": "CC50", "setting": "[2]", "value": "> 50", "unit": "µg/mL"}, {"measurement": "IC50", "setting": "[3]", "value": 11, "unit": "µg/mL"}, {"measurement": "IC50", "setting": "[4]", "value": "> 8", "unit": "µg/mL"}, {"measurement": "IC50", "setting": "[5]", "value": "> 5", "unit": "µg/mL"}, {"measurement": "IC50", "setting": "[6]", "value": "> 8", "unit": "µg/mL"}, {"measurement": "IC50", "setting": "[7]", "value": "> 5", "unit": "µg/mL"}, {"measurement": "CC50", "setting": "[8]", "value": 23, "unit": "µg/mL"}, {"measurement": "IC50", "setting": "[9]", "value": 8.4, "unit": "µg/mL"}, {"measurement": "CC50", "setting": "[1]", "value": "> 50", "unit": "µg/mL"}]}, {"smiles": "O=C1c2ccccc2N(Cc2ccccc2)S(=O)(=O)N1COCc1ccccc1", "values": [{"measurement": "CC50", "setting": "[2]", "value": "> 50", "unit": "µg/mL"}, {"measurement": "IC50", "setting": "[3]", "value": 3.6, "unit": "µg/mL"}, {"measurement": "IC50", "setting": "[4]", "value": 3.7, "unit": "µg/mL"}, {"measurement": "IC50", "setting": "[5]", "value": "> 5", "unit": "µg/mL"}, {"measurement": "IC50", "setting": "[10]", "value": 3.7, "unit": "µg/mL"}, {"measurement": "IC50", "setting": "[6]", "value": "> 99", "unit": "µg/mL"}, {"measurement": "IC50", "setting": "[7]", "value": 3, "unit": "µg/mL"}, {"measurement": "CC50", "setting": "[8]", "value": "> 125", "unit": "µg/mL"}, {"measurement": "IC50", "setting": "[9]", "value": 3.6, "unit": "µg/mL"}, {"measurement": "CC50", "setting": "[1]", "value": "> 50", "unit": "µg/mL"}]}, {"smiles": "Nc1nc2c(ncn2COC(CO)CO)c(=O)[nH]1", "note": "[GANCICLOVIR]", "values": [{"measurement": "CC50", "setting": "[2]", "value": "> 50", "unit": "µg/mL"}, {"measurement": "IC50", "setting": "[3]", "value": 1.3, "unit": "µg/mL"}, {"measurement": "IC50", "setting": "[9]", "value": 1.2, "unit": "µg/mL"}]}, {"smiles": "O=C(OCCOCN1c2ccccc2C(=O)N(Cc2ccccc2)S1(=O)=O)c1ccccc1", "values": [{"measurement": "CC50", "setting": "[2]", "value": 24, "unit": "µg/mL"}, {"measurement": "IC50", "setting": "[3]", "value": 12, "unit": "µg/mL"}, {"measurement": "IC50", "setting": "[4]", "value": 79.3, "unit": "µg/mL"}, {"measurement": "IC50", "setting": "[5]", "value": "> 12", "unit": "µg/mL"}, {"measurement": "IC50", "setting": "[6]", "value": "> 86", "unit": "µg/mL"}, {"measurement": "IC50", "setting": "[7]", "value": "> 12", "unit": "µg/mL"}, {"measurement": "CC50", "setting": "[8]", "value": "> 125", "unit": "µg/mL"}, {"measurement": "IC50", "setting": "[9]", "value": 12, "unit": "µg/mL"}, {"measurement": "CC50", "setting": "[1]", "value": 24, "unit": "µg/mL"}]}]}
